How the values were obtained:
[1] = test infusion, 500 μL to each motor cortex
[2] = system: release of neurotransmitters including acetylcholine, norepinephrine, and glutamate; conditions: in vivo; cited from earlier work

In the case of `[Gd]` [gadolinium], the motor cortical coverage [1] was “satisfactory motor cortical coverage”.

In the case of Botulinum toxin type A, the “period of reversible inhibition of neurotransmitter release” value [2] is listed as 2-6 months.
